Test results taken from US9572788B2, “Cell permeable inhibitors of anaphase promoting complex” (President and Fellows of Harvard College, priority 2014, dated 2017).
Where two headings read alike, the source gives them in different places.

Key:
[1] = system: HeLa H2B-GFP cells; assay: Chromosome congression analysis; format: cell-based, human; conditions: for Congression delay: 10 nM nocodazole or 12 μM proTAME; for Average chromosome congression time / Median chromosome congression time: Fig S4C
Description: HeLa H2B-GFP cells were plated in 35 mm glass-bottom dishes (MatTek) in DMEM+10% FBS at 20% confluence one day prior to the experiment and synchronized by double thymidine block as described above. Drugs were added as follows to a final volume of 3 ml from 2× concentrated preparation in culture medium. DMSO (0.06%), proTAME (3 and 12 μM) or 10 nM Nocodazole were added 8 h after release from the second block, while MG132 (10 μM) was added at 10 h. H2B-GFP was imaged for 4 hrs every 3 min at 40× magnification as described above.

[2] = system: HeLa H2B-GFP cells; assay: Live cell imaging of mitotic duration and cell fate; format: cell-based, human; conditions: for Response of arrested cells to roscovitine: 100 μM roscovitine at 12 h after release; for Mitotic phenotype: synchronized HeLa H2B-GFP
Description: Detailed siRNA transfection and drug treatment schemes are described in supplemental experimental procedures. HeLa H2B-GFP cells were plated in DMEM with 10% FBS at 20% confluence. […] Live cell imaging was performed at 12 minute intervals on a Nikon TE2000E PFS inverted microscope fitted with an incubation chamber maintained at 37° C. and supplied with 5% CO2. Cell division was tracked by manual inspection of movies, and mitotic duration was measured as the time between the first frame of chromosome condensation and the frame of chromosome segregation (anaphase), decondensation (mitotic exit without anaphase) or cell death (chromosomes shrinking to a small bright dot).
The imaging plate was mounted onto a motorized stage (Prior ProScan II) on a Nikon TE2000E PFS inverted microscope fitted with an incubation chamber maintained at 37° C. and supplied with 5% CO2. A 20× Plan Apo 0.75 NA or 40× Plan Fluor 0.75 NA objective lens was used as indicated and images were collected with 2×2 binning. […] TIFF files of each image were exported from Elements and used to build stacks and Quicktime movies with Metamorph imaging software (Molecular Devices). For manual analysis, mitotic duration is counted as the time between the first frame of chromosome condensation and the frame of chromosome segregation (anaphase) or decondensation (mitotic exit in the presence of nocodazole) or cell death (chromosomes shrinking to a small bright dot).
HeLa H2B-GFP cells were plated in a 24-well plate in DMEM 10% FBS at 20% confluence one day prior to experiment and synchronized by double thymidine block as described above. […] Live cell imaging was set up as described above.
HeLa H2B-GFP cells were plated in a 24-well plate in DMEM+10% FBS at 20% confluence one day prior to the experiment and synchronized by double thymidine block as described above. The cells were released from the first thymidine block into 200 μl OptiMem without FBS. Transfection was performed immediately after the first thymidine release. […] The two mixtures were left at room temperature for 5 min before being mixed together and incubated for additional 20 min and then added to the cells to a final volume of 250 μl. 4 h after transfection, 250 μl of DMEM+20% FBS were added to cells.
HeLa H2B-GFP cells were plated in glass-bottom 24-well plates at 20% confluence one day prior to the experiment and synchronized by double thymidine block as described above. […] Cells were treated with 100 nM Hesperadin or DMSO 8 h after release from the second thymidine block and live cell imaging was set up as described above.
HeLa H2B-GFP cells were plated in a 24-well plate in DMEM+10% FBS at 20% confluence one day prior to experiment and synchronized by double thymidine block as synchronized above. […] Live cell imaging was set up as described above.
HeLa H2B-GFP cells were plated in a 24-well plate in DMEM+10% FBS at 20% confluence one day prior to experiment and synchronized by double thymidine block as described above. […] Untreated cells were used as the control. Live cell imaging was set up as described above. […] Alternatively, at 10 h after release from the second block, 10 μM MG132 with or without 25 μg/ml cycloheximide was added to the cells. […] Live cell imaging was set up as described above.
HeLa H2B-GFP cells were plated in a 24-well plate in DMEM+10% FBS at 20% confluence one day prior to experiment and synchronized by double thymidine block as described above. Mad2 siRNA transfection was performed as described above. At 10 h after release from the second block, 10 μM MG132 with or without 25 μg/ml cycloheximide was added to the cells. Live cell imaging was set up as described above. Manual analysis was focused only on cells that entered mitosis after MG132 addition.
Live cell imaging experiments. […] Nocodazole, taxol, proTAME, cyclinal and hesperadin were added to cells at 8 h after release. MG132 was added to cells at 10 h after release to allow mitotic entry.

[3] = proTAME 12 μM, MG132 10 μM, nocodazole 10 nM
[4] = Example 3, Mad2 knockdown, 12 μM proTAME, 300 nM nocodazole
[5] = Example 3, without Mad2 knockdown, 12 μM proTAME, 300 nM nocodazole
[6] = Fig 5A, synchronized HeLa cells, 780 nM
[7] = Fig 5A, synchronized HeLa cells, 3 μM
[8] = Fig 5A, synchronized HeLa cells, 12 μM
[9] = Fig 5B, control siRNA, low proTAME concentration (4 μM)
[10] = Fig 5B, partial Cdc20 knockdown (Cdc20 siRNA), proTAME 4 μM
[11] = Fig 6A, MAD2 siRNA, 12 μM proTAME, 300 nM nocodazole
[12] = Fig 6C, compounds 8 h after release, 12 μM proTAME, 300 nM nocodazole, 150 nM taxol, 100 nM hesperadin
[13] = Fig 8A, 12 μM proTAME, 300 nM nocodazole or 150 nM taxol, ± 25 μg/ml cycloheximide 4 h later
[14] = Fig S5G, after washout from nocodazole-induced arrest, release in proTAME 12 μM ± hesperadin 100 nM
[15] = double-thymidine synchronized cells, Mad2 knockdown
[16] = double-thymidine synchronized cells, without Mad2 knockdown
[17] = Fig 6A, control siRNA, 12 μM proTAME, 300 nM nocodazole

COC(=O)[C@H](CCCN/C(=N\C(=O)OCOC(=O)Cc1ccccc1)NC(=O)OCOC(=O)Cc1ccccc1)NS(=O)(=O)c1ccc(C)cc1 [proTAME]
Congression delay [1]: 6 min
Delay in chromosome congression ([1]; 3 μM proTAME or 10 μM MG132): caused no delay in chromosome congression
Time to achieve metaphase, average ([1]; Example 2, 12 (μM) proTAME, 15 minutes for DMSO): 40 min
Average chromosome congression time ([1]; proTAME 3 μM): 21.7 min
Median chromosome congression time ([1]; proTAME 3 μM): 21 min
Average chromosome congression time [1, 3]: 26.0 min
Median chromosome congression time [1, 3]: 24 min
Average mitotic duration [2]: 1512.4 min
Median mitotic duration [2]: 1488 min
Mitotic duration ([2]; 3 μM): 5 h
Duration of mitotic arrest ([2]; 12 μM proTAME): over 28 h
Extension of mitotic duration ([2]; 12 μM, SAC inactivated by Mad2 depletion): 72 min
Extension of mitotic duration ([2]; 12 μM, intact SAC): 1380 min
Response of arrested cells to roscovitine [2]: induces rapid mitotic exit
Mitotic duration ([2]; Cdc20 levels reduced by 50% by siRNA, 4 μM): 19.4 h
Duration of mitotic arrest ([2]; Example 2, 12 μM proTAME, DIC imaging): over 10 hours
Duration of metaphase arrest ([2]; Example 2, 12 (μM) proTAME, fluorescence imaging): more than 8 hours
Mitotic duration ([2]; Example 2, HeLa H2B-GFP fluorescence imaging, 3 μM proTAME, proAAME control): 2 h
Median mitotic duration [2, 4]: 120 min
Median mitotic duration [2, 5]: 420 min
Average mitotic duration [2, 6]: 165.4 min
Median mitotic duration [2, 6]: 156 min
Average mitotic duration [2, 7]: 444.6 min
Median mitotic duration [2, 7]: 348 min
Average mitotic duration [2, 8]: 1640.5 min
Median mitotic duration [2, 8]: 1680 min
Average mitotic duration [2, 9]: 496.5 min
Median mitotic duration [2, 9]: 288 min
Average mitotic duration [2, 10]: 1235.3 min
Median mitotic duration [2, 10]: 1170 min
Average mitotic duration [2, 11]: 121.7 min
Median mitotic duration [2, 11]: 84 min
Average mitotic duration [2, 12]: 1329.3 min
Median mitotic duration [2, 12]: 1272 min
Average mitotic duration [2, 13]: 1052.0 min
Median mitotic duration [2, 13]: 972 min
Average mitotic duration [2, 14]: 1516.4 min
Median mitotic duration [2, 14]: 1410 min
Effect on mitotic exit ([2]; Mad2-knockdown cells, proTAME 12 μM, cyclinal 100 μM): only transiently delayed mitotic exit
Median mitotic duration ([2]; Mad2 knockdown cells (12 min without proTAME)): 84 min
Mitotic duration ([2]; control-transfected cells, 4 μM): 4.8 h
Duration of mitotic arrest [2, 15]: 1.4 h
Duration of mitotic arrest [2, 16]: 24.6 h
Duration of mitotic arrest ([2]; in the absence of Mad2): approximately 2 hours
Effect on mitotic exit ([2]; in the presence of hesperadin): only transiently delayed mitotic exit
Mitotic phenotype ([2]; 780 nM or 3 μM): remained in metaphase for up to several hours, but then proceeded through a normal anaphase
Mitotic phenotype ([2]; 12 μM): arrested in metaphase and subsequently died
Median mitotic arrest ([2]; synchronized, drugs 10 hrs after release, proTAME 1 μM, MG132 0.5 μM): 216 min
Median mitotic delay/arrest ([2]; synchronized, drugs 10 hrs after release, proTAME 3 μM, low-dose MG132): 438 min
Median mitotic duration ([2]; unsynchronized HeLa H2B-GFP, taxol 10 nM, proTAME 3 μM, control 60 min): 132 min

COC(=O)Nc1nc2ccc(C(=O)c3cccs3)cc2[nH]1 [Nocodazole, reference compound]
Congression delay [1]: 6 min
Average chromosome congression time [1, 3]: 26.2 min
Median chromosome congression time [1, 3]: 24 min
Prolongation of mitosis ([2]; 10 nM nocodazole): 20 min
Extension of mitotic duration ([2]; 10 nM, SAC-proficient cells): 20 min
Response of arrested cells to roscovitine [2]: induced instantaneous mitotic exit
Median mitotic duration [2, 4]: 30 min
Median mitotic duration [2, 5]: 1230 min
Average mitotic duration [2, 11]: 98.2 min
Median mitotic duration [2, 11]: 36 min
Average mitotic duration [2, 17]: 1680.1 min
Median mitotic duration [2, 17]: 1812 min
Average mitotic duration [2, 12]: 1851.8 min
Median mitotic duration [2, 12]: 2094 min
Average mitotic duration [2, 13]: 1777.0 min
Median mitotic duration [2, 13]: 2160 min
Duration of mitotic arrest [2, 15]: 0.6 h
Duration of mitotic arrest [2, 16]: 30 h
